According to the NIST ThermoML archive (doi:10.1021/acs.jced.5b00051):

Assay: molar heat capacity at constant pressure
Conditions: 101.33 kPa, Liquid, Large sample (1 g) DSC

CCCCCCOCCOCCO [2-(2-hexyloxyethoxy)ethanol]
Conditions	molar heat capacity at constant pressure [J/K/mol]
275.15 K	411.2
277.15 K	412
279.15 K	412.8
281.15 K	413.6
283.15 K	414.4
285.15 K	415.3
287.15 K	416.1
289.15 K	417
291.15 K	417.9
293.15 K	418.7
295.15 K	419.6
297.15 K	420.5
298.15 K	421
299.15 K	421.4
301.15 K	422.3
303.15 K	423.2
305.15 K	424.2
307.15 K	425.1
309.15 K	426
311.15 K	427
313.15 K	428
315.15 K	428.9
317.15 K	429.9
319.15 K	430.9
321.15 K	431.9
323.15 K	432.9
325.15 K	433.9
327.15 K	434.9
329.15 K	436
331.15 K	437
333.15 K	438
335.15 K	439.1
337.15 K	440.2
339.15 K	441.2

COCCOCCO [2-(2-methoxyethoxy)ethanol]
Conditions	molar heat capacity at constant pressure [J/K/mol]
275.15 K	261.9
277.15 K	262.3
279.15 K	262.7
281.15 K	263.2
283.15 K	263.6
285.15 K	264.1
287.15 K	264.6
289.15 K	265.1
291.15 K	265.6
293.15 K	266.1
295.15 K	266.6
297.15 K	267.1
298.15 K	267.4
299.15 K	267.6
301.15 K	268.2
303.15 K	268.7
305.15 K	269.3
307.15 K	269.8
309.15 K	270.4
311.15 K	271
313.15 K	271.6
315.15 K	272.2
317.15 K	272.8
319.15 K	273.4
321.15 K	274
323.15 K	274.7
325.15 K	275.3
327.15 K	276
329.15 K	276.6
331.15 K	277.3
333.15 K	278
335.15 K	278.7
337.15 K	279.4
339.15 K	280.1

CCCOCCOCCO [2-(2-propoxyethoxy)ethanol]
Conditions	molar heat capacity at constant pressure [J/K/mol]
275.15 K	321.3
277.15 K	322
279.15 K	322.6
281.15 K	323.3
283.15 K	324
285.15 K	324.7
287.15 K	325.4
289.15 K	326.1
291.15 K	326.8
293.15 K	327.5
295.15 K	328.2
297.15 K	329
298.15 K	329.4
299.15 K	329.7
301.15 K	330.5
303.15 K	331.3
305.15 K	332
307.15 K	332.8
309.15 K	333.6
311.15 K	334.4
313.15 K	335.2
315.15 K	336
317.15 K	336.9
319.15 K	337.7
321.15 K	338.5
323.15 K	339.4
325.15 K	340.3
327.15 K	341.1
329.15 K	342
331.15 K	342.9
333.15 K	343.8
335.15 K	344.7
337.15 K	345.6
339.15 K	346.5

COCCOCCOCCO [2-[2-(2-methoxyethoxy)ethoxy]ethanol]
Conditions	molar heat capacity at constant pressure [J/K/mol]
275.15 K	352.2
277.15 K	352.6
279.15 K	352.9
281.15 K	353.2
283.15 K	353.6
285.15 K	353.9
287.15 K	354.3
289.15 K	354.7
291.15 K	355.1
293.15 K	355.5
295.15 K	355.9
297.15 K	356.3
298.15 K	356.6
299.15 K	356.8
301.15 K	357.2
303.15 K	357.7
305.15 K	358.1
307.15 K	358.6
309.15 K	359.1
311.15 K	359.6
313.15 K	360.1
315.15 K	360.6
317.15 K	361.2
319.15 K	361.7
321.15 K	362.2
323.15 K	362.8
325.15 K	363.4
327.15 K	364
329.15 K	364.5
331.15 K	365.1
333.15 K	365.8
335.15 K	366.4
337.15 K	367
339.15 K	367.6

CCCCCCCCOCCOCCOCCO [2-[2-[2-(octyloxy)ethoxy]ethoxy]ethanol]
Conditions	molar heat capacity at constant pressure [J/K/mol]
275.15 K	563.7
277.15 K	564.5
279.15 K	565.2
281.15 K	566
283.15 K	566.9
285.15 K	567.7
287.15 K	568.6
289.15 K	569.5
291.15 K	570.4
293.15 K	571.3
295.15 K	572.2
297.15 K	573.2
298.15 K	573.7
299.15 K	574.2
301.15 K	575.2
303.15 K	576.2
305.15 K	577.3
307.15 K	578.4
309.15 K	579.5
311.15 K	580.6
313.15 K	581.7
315.15 K	582.9
317.15 K	584.1
319.15 K	585.3
321.15 K	586.5
323.15 K	587.7
325.15 K	589
327.15 K	590.3
329.15 K	591.6
331.15 K	592.9
333.15 K	594.3
335.15 K	595.6
337.15 K	597
339.15 K	598.4

CCCCOCCO [2-butoxyethan-1-ol]
Conditions	molar heat capacity at constant pressure [J/K/mol]
275.15 K	261.7
277.15 K	262.6
279.15 K	263.6
281.15 K	264.6
283.15 K	265.6
285.15 K	266.6
287.15 K	267.6
289.15 K	268.5
291.15 K	269.5
293.15 K	270.5
295.15 K	271.5
297.15 K	272.5
298.15 K	273
299.15 K	273.5
301.15 K	274.5
303.15 K	275.5
305.15 K	276.5
307.15 K	277.5
309.15 K	278.5
311.15 K	279.5
313.15 K	280.5
315.15 K	281.5
317.15 K	282.5
319.15 K	283.5
321.15 K	284.5
323.15 K	285.5
325.15 K	286.5
327.15 K	287.5
329.15 K	288.5
331.15 K	289.6
333.15 K	290.6
335.15 K	291.6
337.15 K	292.6
339.15 K	293.6

CCOCCO [2-ethoxyethan-1-ol]
Conditions	molar heat capacity at constant pressure [J/K/mol]
275.15 K	203.3
277.15 K	204
279.15 K	204.6
281.15 K	205.3
283.15 K	205.9
285.15 K	206.6
287.15 K	207.3
289.15 K	208
291.15 K	208.6
293.15 K	209.3
295.15 K	210
297.15 K	210.7
298.15 K	211.1
299.15 K	211.4
301.15 K	212.1
303.15 K	212.8
305.15 K	213.6
307.15 K	214.3
309.15 K	215
311.15 K	215.7
313.15 K	216.5
315.15 K	217.2
317.15 K	218
319.15 K	218.7
321.15 K	219.5
323.15 K	220.2
325.15 K	221
327.15 K	221.8
329.15 K	222.6
331.15 K	223.3
333.15 K	224.1
335.15 K	224.9
337.15 K	225.7
339.15 K	226.5

CCCOCCO [2-propoxyethanol]
Conditions	molar heat capacity at constant pressure [J/K/mol]
275.15 K	231.6
277.15 K	232.4
279.15 K	233.3
281.15 K	234.1
283.15 K	235
285.15 K	235.8
287.15 K	236.6
289.15 K	237.5
291.15 K	238.3
293.15 K	239.2
295.15 K	240.1
297.15 K	240.9
298.15 K	241.4
299.15 K	241.8
301.15 K	242.7
303.15 K	243.5
305.15 K	244.4
307.15 K	245.3
309.15 K	246.2
311.15 K	247.1
313.15 K	248
315.15 K	248.9
317.15 K	249.8
319.15 K	250.7
321.15 K	251.6
323.15 K	252.5
325.15 K	253.4
327.15 K	254.3
329.15 K	255.2
331.15 K	256.1
333.15 K	257.1
335.15 K	258
337.15 K	258.9
339.15 K	259.9
